Experimental data as given in patent US20260108483A1, “METHODS AND COMPOSITIONS FOR PREVENTING THE PROGRESSION OF DIABETIC RETINOPATHY AND RELATED CONDITIONS” (Opus Genetics, Inc., priority 2023, published 2026).

How the values were obtained:
[1] = Clinical study safety: alanine aminotransferase in subjects' blood; type: in vivo, human; settings: combined placebo + Compound 1 patients; for Mean Concentration of Alanine Aminotransferase in Subjects' Blood: Baseline 22.4
Source text: (§1) The study was configured as a placebo-controlled, double-masked, randomized, Phase 2 study in approximately 100 subjects with moderately severe to severe NPDR (diabetic retinopathy severity score [DRSS] Level 47 or 53, see FIG. 1) or mild PDR (DRSS Level 61), evaluating safety and efficacy following administration of Compound 1 twice daily for 24 weeks. The study was configured for a 1:1 randomization (placebo: Compound 1). Randomization was stratified by level of disease severity (NPDR or PDR). Subjects with mild PDR were capped at 20% for each arm. Efficacy evaluations at 12 and/or 24 weeks included DRSS, center-involved diabetic macular edema (DME), moderate PDR or PDR-related adverse events (AEs), best-corrected visual acuity (BCVA), and central subfield thickness (CST). Further experimental procedures and results are described below.
(§2) At the Qualification/Baseline (Visit 2, Day 1): • The subject was randomized into the study. • Study medication was dispensed in accordance with the subjects randomized treatment arm. • Blood samples were drawn pre-dose for baseline levels and on Visit 9 (Week 24) for exploratory biomarker processing (i.e., cytokine and Ref-1 levels) to evaluate pharmacodynamic properties. • Subjects were instructed to administer their study medication (Compound 1 or placebo) each day, with 3 tablets every morning and 2 tablets every evening. Study medication was to be taken at approximately the same time each day and may be taken with or without food.
At the Second Treatment Visit (Visit 6, Week 12±2 Days), subjects were to return to the site for the following series of safety and efficacy assessments: drug accountability, concomitant medications, urine pregnancy test (only for women of childbearing potential), HR/BP/vital signs, BCVA (ETDRS), DRSS, CST (SD-OCT), blood draw for PK, blood chemistry, blood hematology, biomicroscopy, ophthalmoscopy, IOP, eGFR, and AEs. Following the completion of the assessments, used medication kits were collected for accountability (by counting the number of unused tablets), and new study medication kits dispensed.
At the Third Treatment Visit (Visit 9, Week 24±2 Days), subjects were to return to the site for the following series of safety and efficacy assessments: drug accountability, concomitant medications, urine pregnancy test (only for women of childbearing potential), physical examination, HR/BP/vital signs, BCVA (ETDRS), DRSS, CST (SD-OCT), blood chemistry, blood hematology, biomicroscopy, ophthalmoscopy, IOP, eGFR, AEs, and blood draw for exploratory biomarkers (ELISA, cytokine panel, comprehensive metabolic panel). Visit 9 (Week 24) was the end of the treatment period. Study medication was returned for accountability (by counting the number of unused tablets), and no further study medication dispensed.
Safety endpoints include: • Incidence and severity of systemic and ocular AEs, • Change from baseline in body system assessments, • Change from baseline in vital sign measurements, • Change from baseline in clinical laboratory assay results (blood chemistry, hematology), • Change from baseline in intraocular pressure (IOP), • Change from baseline in slit-lamp examination parameters, • Change from baseline in dilated funduscopic examination parameters, • Percent of subjects with a decrease of ≥10 letters in BCVA compared to baseline at Week 12 and Week 24, • Percent of subjects progressing to center-involved DME (eligible for rescue treatment at Week 12 and Week 24), • Percent of subjects with a worsening in DRSS of ≥2 steps in the study eye at Week 12 and Week 24, • Percent of subjects developing anterior segment neovascularization at Week 12 and Week 24, • Percent of subjects rescued (intravitreal anti-VEGF injection, laser PRP, focal/grid laser treatment, or surgery [vitrectomy]) at the discretion of the Investigator at Week 12 and Week 24, and • Change from baseline in estimated glomerular filtration rate (eGFR) at Week 12 and Week 24. […]

[2] = Clinical study safety: treatment-emergent adverse events; type: in vivo, human
Source text: as §1, §2
Safety endpoints include: • Incidence and severity of systemic and ocular AEs, • Change from baseline in body system assessments, • Change from baseline in vital sign measurements, • Change from baseline in clinical laboratory assay results (blood chemistry, hematology), • Change from baseline in intraocular pressure (IOP), • Change from baseline in slit-lamp examination parameters, • Change from baseline in dilated funduscopic examination parameters, • Percent of subjects with a decrease of ≥10 letters in BCVA compared to baseline at Week 12 and Week 24, • Percent of subjects progressing to center-involved DME (eligible for rescue treatment at Week 12 and Week 24), • Percent of subjects with a worsening in DRSS of ≥2 steps in the study eye at Week 12 and Week 24, • Percent of subjects developing anterior segment neovascularization at Week 12 and Week 24, • Percent of subjects rescued (intravitreal anti-VEGF injection, laser PRP, focal/grid laser treatment, or surgery [vitrectomy]) at the discretion of the Investigator at Week 12 and Week 24, and • Change from baseline in estimated glomerular filtration rate (eGFR) at Week 12 and Week 24.
Analysis populations included: • Modified Intention-to-Treat (mITT): The mITT includes all randomized subjects who received at least one dose of study treatment and at least one post-dose efficacy measurement. […] The PP population will be used for primary endpoint analysis and to analyze efficacy endpoints. • All Randomized Population (ARP): The ARP includes all randomized subjects. This population is also known as the Intent-to-Treat (ITT) population. The ARP will be used in confirmatory efficacy analyses. • Safety Population (SP): The SP includes all randomized subjects who have received at least one dose of study treatment. The SP was used to summarize safety variables.
Provided below is data on safety on Compound 1 orally administered to patients according to the study protocol described herein. The data is from one-hundred patients that were enrolled in the trial. Per the study protocol described above, patients enrolled in the study were randomized 1:1 for receipt of placebo versus Compound 1. The safety data below is the combined results from patients that received placebo and those received Compound 1.
Table 9 below provides a summary of occurrence of adverse events across 100 subjects enrolled in the study, which is the combined results from patients that received placebo and those that received Compound 1. […]

[3] = 100 subjects, combined placebo + Compound 1, bilateral ocular events counted twice
[4] = 100 subjects, combined placebo + Compound 1 patients

## CCCCCCCCC/C(=C\C1=C(C)C(=O)C(OC)=C(OC)C1=O)C(=O)O [Compound 1, (E)-2-((4,5-dimethoxy-2-methyl-3,6-dioxocyclohexa-1,4-dien-1-yl)methylene)undecanoic acid]
[1]; Week 12, 53 subjects
  Mean Concentration of Alanine Aminotransferase in Subjects' Blood: 21.6 IU/L
[1]; Week 24, 24 subjects
  Mean Concentration of Alanine Aminotransferase in Subjects' Blood: 20.4 IU/L
[1]; week 12, 50 subjects
  change in mean concentration of alanine aminotransferase relative to Baseline: −0.8 IU/L
  reduction in mean concentration of alanine aminotransferase relative to Baseline: 3.6%
[1]; week 24, 22 subjects
  change in mean concentration of alanine aminotransferase relative to Baseline: −2.1 IU/L
  reduction in mean concentration of alanine aminotransferase relative to Baseline: 9.4%
[2]; [3]
  No. of Subjects That Experienced a Treatment-Emergent Adverse the Category: Anterior (eye disorder): 5
  No. of Subjects That Experienced a Treatment-Emergent Adverse the Category: Posterior (eye disorder): 9
[2]; [4]
  No. of Subjects That Experienced a Treatment-Emergent Adverse the Category: Blood or lymphatic system disorder: 1
  No. of Subjects That Experienced a Treatment-Emergent Adverse the Category: Cardiac disorder: 1
  No. of Subjects That Experienced a Treatment-Emergent Adverse the Category: Ear or labyrinth disorder: 1
  No. of Subjects That Experienced a Treatment-Emergent Adverse the Category: Eye disorder: 9
  No. of Subjects That Experienced a Treatment-Emergent Adverse the Category: Gastrointestinal disorder: 9
  No. of Subjects That Experienced a Treatment-Emergent Adverse the Category: General disorders or administration site condition: 1
  No. of Subjects That Experienced a Treatment-Emergent Adverse the Category: Hepatobiliary disorder: 1
  No. of Subjects That Experienced a Treatment-Emergent Adverse the Category: Infection or infestation: 9
  No. of Subjects That Experienced a Treatment-Emergent Adverse the Category: Injury, poisoning, or procedural complication: 1
  No. of Subjects That Experienced a Treatment-Emergent Adverse the Category: Investigation: 3
  No. of Subjects That Experienced a Treatment-Emergent Adverse the Category: Metabolism or nutrition disorder: 1
  No. of Subjects That Experienced a Treatment-Emergent Adverse the Category: Musculoskeletal and connective tissue disorder: 5
  No. of Subjects That Experienced a Treatment-Emergent Adverse the Category: Nervous system disorder: 7
  No. of Subjects That Experienced a Treatment-Emergent Adverse the Category: Not coded: 4
  No. of Subjects That Experienced a Treatment-Emergent Adverse the Category: Psychiatric disorder: 2
  No. of Subjects That Experienced a Treatment-Emergent Adverse the Category: Reproductive system or breast disorder: 1
  No. of Subjects That Experienced a Treatment-Emergent Adverse the Category: Respiratory, thoracic, or mediastinal disorder: 2
  No. of Subjects That Experienced a Treatment-Emergent Adverse the Category: Skin and subcutaneous tissue disorder: 7
  No. of Subjects That Experienced a Treatment-Emergent Adverse the Category: Vascular disorder: 1
[2]; administered according to study protocol, 600 mg/day oral, 24 weeks
  safety profile: good safety profile
[2]; from 100 subjects, combined placebo + Compound 1 patients
  total treatment-emergent adverse events observed: 83
[2]; of 100 subjects, combined placebo + Compound 1 patients
  subjects reporting at least one treatment-emergent adverse event: 41
